In experiment [1] the test system is AtproPep1 gene expression. As to the kind of experiment: Hormone treatments of intact plants, RT-PCR of AtproPep1 and paralogs. Particulars: for expression of AtproPep1 paralogs after spraying: At5g64905, At5g64900, At5g64890, At5g09980; for expression of the AtproPep1 gene in intact plants: sprayed: MeJA 250 μM, ethephon 7 mM, within an hour. The experiment is classed as in vivo, Arabidopsis thaliana. Here is the method: Plant stress and hormone treatments. To examine effects of cold stress, plants were placed in a refrigerated growth chamber set to 2° C. To simulate drought stress conditions, plants grown under standard growth chamber conditions were grown without watering. Methyl jasmonate (Bedoukian Research Inc., Danbury Conn.) was applied as a 625 μM solution in 0.1% Triton X-100 to the upper surface of leaves and the plants were incubated in plexiglass boxes. Methyl salicylate (Sigma-Aldrich, St. Louis Mo.), was applied to leaf surfaces at 2 mM in a 0.1% Triton X-100 solution. Ethephon (Phytotechnology Laboratories, Shawnee Mission Kans.) was sprayed on plants as a 7 mM solution in 0.1% Triton X-100 (Sigma-Aldrich, St. Louis Mo.). ABA effects were analyzed by spraying plants with a 100 μM solution (mixed isomer, Sigma-Aldrich, St. Louis Mo.) in 0.1% Triton X-100 (Denekamp and Smeekens, Plant Physiol. 132, 1415-1423, 2003).
Semi-quantitative RT-PCR analysis of relative gene expression levels. RNA was isolated using Trizol reagent and manufacturer's instructions (Invitrogen. Carlsbad Calif.), and 2 μg of RNA template was reverse transcribed with a RETROscript kit (Ambion, Austin Tex.). PCR reactions were carried out with ExTaq Hot Start polymerase and reagents (Fisher Scientific, Pittsburgh Pa.). The AtproPep1 forward and reverse primers with the respective sequences of 5′ […] 3′ (SEQ ID NO: 59) and 5′ […] 3′ (SEQ ID NO: 60) generated a 310 bp intron-spanning product. Primers to β-tubulin (At5g62690) of 5′ […] 3′ (SEQ ID NO: 73) and 5′ […] 3′ (SEQ ID NO: 74) generated a 681 base pair intron-spanning product. An initial denaturing/polymerase activating step of 5 minutes at 94° C. was followed by 31 repetitions of the following three steps: a thirty second denaturation phase at 94° C., a thirty second annealing period at 55.5° C., and a one minute elongation step at 72° C. The amplification program was terminated with a 10 minute final 72° C. elongation phase.
Expression analysis of AtproPep1 in response to abiotic and biotic cues. As a first step in seeking a possible function for AtproPep1 and its encoded peptide, the basal expression level of the gene was assessed in leaves, stems, roots and flowers of Arabidopsis plants was studied using semi-quantitative RT-PCR analysis of AtproPep1 gene expression in response to treatment of leaves with MeJA, ethephon, MeSA, and AtPep1. The relative abundance of the proAtPep1 transcript was estimated from the expression of the β-tubulin gene as a control. Leaves were wounded by crushing once across the mid-vein with a hemostat. Plants were sprayed with a 250 μM solution of MeJA in 0.1% Triton X-100; with a […] solution of MeSA in 0.1% Triton X-100 or with a 7 mM solution of ethephon in 0.1% Triton X-100. […] Total RNA was extracted and analyzed.

The next experiment deals with T1, AtPEPR1 (Arabidopsis thaliana, UniProt Q9SSL9).
T1 construct: Tobacco cells were transformed with a CaMV-35S-AtPEPR1 gene; expressed in transfected cells; host or cells: tobacco suspension-cultured cells (Agrobacterium-mediated, CaMV 35S promoter)
T1 sequence (Q9SSL9 29-1123): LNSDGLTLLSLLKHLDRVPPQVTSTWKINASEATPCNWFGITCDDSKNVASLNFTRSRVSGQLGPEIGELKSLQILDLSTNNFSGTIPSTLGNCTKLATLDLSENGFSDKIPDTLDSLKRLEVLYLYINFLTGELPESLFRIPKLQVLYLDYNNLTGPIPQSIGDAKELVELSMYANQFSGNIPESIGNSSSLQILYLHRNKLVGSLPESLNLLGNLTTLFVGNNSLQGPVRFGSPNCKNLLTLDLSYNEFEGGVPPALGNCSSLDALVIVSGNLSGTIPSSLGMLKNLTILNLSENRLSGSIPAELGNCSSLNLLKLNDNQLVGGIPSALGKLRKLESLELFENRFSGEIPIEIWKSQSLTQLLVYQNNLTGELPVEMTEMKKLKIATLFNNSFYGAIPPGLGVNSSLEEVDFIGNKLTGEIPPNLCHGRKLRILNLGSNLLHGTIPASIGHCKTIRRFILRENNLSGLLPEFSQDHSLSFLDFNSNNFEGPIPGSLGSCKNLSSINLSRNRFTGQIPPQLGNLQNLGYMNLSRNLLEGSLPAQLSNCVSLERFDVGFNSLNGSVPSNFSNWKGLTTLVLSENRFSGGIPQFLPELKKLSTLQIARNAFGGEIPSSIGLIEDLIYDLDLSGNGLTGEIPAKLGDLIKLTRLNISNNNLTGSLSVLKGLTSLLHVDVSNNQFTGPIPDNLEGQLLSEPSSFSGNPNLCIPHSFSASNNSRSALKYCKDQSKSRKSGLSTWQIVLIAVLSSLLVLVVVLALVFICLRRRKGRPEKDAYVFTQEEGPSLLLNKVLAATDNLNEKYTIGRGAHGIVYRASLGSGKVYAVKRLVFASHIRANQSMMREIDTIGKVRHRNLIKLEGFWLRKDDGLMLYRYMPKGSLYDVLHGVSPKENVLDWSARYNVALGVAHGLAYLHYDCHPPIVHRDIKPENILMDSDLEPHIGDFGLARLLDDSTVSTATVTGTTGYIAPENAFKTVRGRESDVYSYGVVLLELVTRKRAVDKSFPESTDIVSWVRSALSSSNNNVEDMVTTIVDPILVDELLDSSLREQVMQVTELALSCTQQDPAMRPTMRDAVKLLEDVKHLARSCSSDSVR
In words: Medium alkalinization of transgenic tobacco cells expressing AtPEPR1. The experiment is classed as cell-based. The text has this: Tobacco cells were transformed with a CaMV-35S-AtPEPR1 gene to determine whether the foreign receptor protein was targeted to the cell surface, where, in response to AtPep1, it would activate intracellular signaling to effect the alkalinization of the medium of the transgenic tobacco cells. Expression of the AtPEPR1 gene was confirmed by RT-PCR analysis of RNA from three independently transformed tobacco cell lines. […] AtPep2-7 was also supplied to the transgenic tobacco cells expressing AtPEPR1.
(§1) To clarify whether AtPEPR2 binds to AtPep1, the AtPEPR2 coding region was fused to the CaMV 35S promoter and introduced into tobacco suspension-cultured cells by Agrobacterium. Tobacco cells expressing AtPEPR1 and GUS genes were also created as positive and negative controls, respectively. […] These transgenic lines were analyzed for alkalinizing activity as previously described (Pearce et al., Proc. Natl. Acad. Sci. USA 98, 12843-12847, 2001).
(§2) The response to all AtPep peptides in transgenic tobacco cells expressing either AtPEPR1 or AtPEPR2 was analyzed by the medium alkalinization assay.

Experiment [2] deals with AtPEPR1 and AtPEPR2 transcripts. As to the kind of experiment: Expression analysis of AtPEPR1 and AtPEPR2 (Northern hybridization, quantitative RT-PCR). In kind it is in vivo, Arabidopsis thaliana. As to conditions: within 30 min. The method, then:
Expression analysis of AtPEPR1 and AtPEPR2. […] In order to elucidate the role of AtPEPR2 in AtPeps signal transduction, the gene expression patterns were analyzed in comparison with AtPEPR1.

In the next experiment the test system is OsPEPR1. In words: Medium alkalinization of transgenic tobacco cells expressing OsPEPR1. In kind it is cell-based, rice. The source says:
(§3) We identified rice homologues of AtPEPR1 in the Rice Annotation Project database (see the website located at www.rapdb.dna.affrc.go.jp). The rice homologues, OsPEPR1 (Os08g0446200) and OsPEPR2 (Os08g0446400), have 60% and 62% amino acid similarities, respectively. The OsPEPR1 has 26 LRRs in the extracellular region, which is the same as AtPEPR1. The OsPEPR2 has a shorter extracellular region with 22 LRRs. Transgenic tobacco cells expressing either OsPEPR1 or OsPEPR2 were created to examine the possibility of receptor binding to monocot peptides. OsPep3a, OsPep3b, OsPep3c, ZmPep1 and ZmPep4a were supplied to suspension cultured transgenic tobacco cells, and medium pH was measured. OsPep3a, OsPep3b, ZmPep1 and ZmPep4a caused medium alkalinization in OsPEPR1 expressing cells with a 1.2 pH unit increase and a half-maximal activity of 0.25 nM.

A further experiment concerns OsPEPR2. As to the kind of experiment: Medium alkalinization of transgenic tobacco cells expressing OsPEPR2. The experiment is classed as cell-based, rice.
Text: as §3

In another experiment the target is T2, AtPEPR2 (Arabidopsis thaliana, UniProt Q9FZ59).
T2 construct: the AtPEPR2 coding region was fused to the CaMV 35S promoter and introduced into tobacco suspension-cultured cells; expressed in transfected cells; host or cells: tobacco suspension-cultured cells, transformed by Agrobacterium, kanamycin-selected
T2 sequence (Q9FZ59 27-1088): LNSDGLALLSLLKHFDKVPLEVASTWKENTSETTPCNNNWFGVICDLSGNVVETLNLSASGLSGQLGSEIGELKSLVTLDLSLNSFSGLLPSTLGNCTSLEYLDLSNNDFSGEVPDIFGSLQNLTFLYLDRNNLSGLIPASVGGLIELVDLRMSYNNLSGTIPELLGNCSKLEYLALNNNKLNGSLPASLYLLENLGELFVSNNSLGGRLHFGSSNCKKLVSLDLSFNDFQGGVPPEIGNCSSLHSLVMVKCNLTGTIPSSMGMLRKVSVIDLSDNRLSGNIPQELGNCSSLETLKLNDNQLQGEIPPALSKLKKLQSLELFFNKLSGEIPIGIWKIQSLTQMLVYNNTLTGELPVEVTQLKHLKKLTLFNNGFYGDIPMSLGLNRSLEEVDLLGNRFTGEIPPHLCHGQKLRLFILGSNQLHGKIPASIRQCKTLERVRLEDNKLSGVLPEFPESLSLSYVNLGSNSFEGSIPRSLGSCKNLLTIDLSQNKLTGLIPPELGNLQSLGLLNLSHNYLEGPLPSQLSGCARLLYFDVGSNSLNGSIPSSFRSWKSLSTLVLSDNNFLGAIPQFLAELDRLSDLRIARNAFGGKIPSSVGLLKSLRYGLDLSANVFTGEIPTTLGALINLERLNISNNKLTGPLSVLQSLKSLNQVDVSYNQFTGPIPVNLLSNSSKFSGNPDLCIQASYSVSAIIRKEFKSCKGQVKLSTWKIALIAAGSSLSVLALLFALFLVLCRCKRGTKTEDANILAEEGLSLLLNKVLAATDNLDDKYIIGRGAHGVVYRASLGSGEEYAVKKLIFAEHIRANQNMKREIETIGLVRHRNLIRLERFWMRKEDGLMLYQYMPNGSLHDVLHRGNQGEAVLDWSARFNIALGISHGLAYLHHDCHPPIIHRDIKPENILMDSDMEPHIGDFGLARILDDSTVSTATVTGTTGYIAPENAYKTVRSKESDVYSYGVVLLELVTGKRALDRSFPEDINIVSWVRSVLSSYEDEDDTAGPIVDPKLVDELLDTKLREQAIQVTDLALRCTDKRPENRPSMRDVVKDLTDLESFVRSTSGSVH
As to the kind of experiment: Medium alkalinization of transgenic tobacco cells expressing AtPEPR2. In kind it is cell-based. Here is the method:
as §1, §2

Experiment [3] has as its system GmPROPEP and soybean defense-related gene expression. As to the kind of experiment: Soybean gene expression by semi-quantitative RT-PCR. The experiment is classed as in vivo. The method, then: Precursor gene expression of soybean homologues of the AtPep peptide, GmPROPEP1, GmPROPEP2 and GmPROPEP3, were analyzed by semi-quantitative RT-PCR. GmPROPEP2 and GmPROPEP3 were expressed in leaves, stems and roots. GmPROPEP1 was expressed mainly in roots, and very weakly in leaves and stems. The transcripts of GmPROPEP1 increased 4-fold 1 hour after supplying MeJA and 3-fold 8 hours after wounding. The transcripts of GmPROPEP2 increased 5-fold 2 hours after supplying MeJA. GmPep1-3 also affected the precursor gene expression. The GmPROPEP1 was induced by infiltration of GmPep1-3 (50 nM), and GmPROPEP2 was induced by GmPep2 (50 nM) and GmPep3 (50 nM) infiltration.
To examine whether GmPep1-3 are involved in defense responses, expression of soybean defense-related genes were analyzed by semi-quantitative RT-PCR after GmPep1-3 infiltration. The transcripts of D6aH/CYP93a1, a biosynthetic enzyme of the soybean phytoalexin glyceollin (Schopfer et al., FEBS Lett. 432: […], 1998), were induced 2 to 3-fold by GmPep1-3 infiltration.

No end group written: not given here.

OsPEPR1, sequence (as listed by the source): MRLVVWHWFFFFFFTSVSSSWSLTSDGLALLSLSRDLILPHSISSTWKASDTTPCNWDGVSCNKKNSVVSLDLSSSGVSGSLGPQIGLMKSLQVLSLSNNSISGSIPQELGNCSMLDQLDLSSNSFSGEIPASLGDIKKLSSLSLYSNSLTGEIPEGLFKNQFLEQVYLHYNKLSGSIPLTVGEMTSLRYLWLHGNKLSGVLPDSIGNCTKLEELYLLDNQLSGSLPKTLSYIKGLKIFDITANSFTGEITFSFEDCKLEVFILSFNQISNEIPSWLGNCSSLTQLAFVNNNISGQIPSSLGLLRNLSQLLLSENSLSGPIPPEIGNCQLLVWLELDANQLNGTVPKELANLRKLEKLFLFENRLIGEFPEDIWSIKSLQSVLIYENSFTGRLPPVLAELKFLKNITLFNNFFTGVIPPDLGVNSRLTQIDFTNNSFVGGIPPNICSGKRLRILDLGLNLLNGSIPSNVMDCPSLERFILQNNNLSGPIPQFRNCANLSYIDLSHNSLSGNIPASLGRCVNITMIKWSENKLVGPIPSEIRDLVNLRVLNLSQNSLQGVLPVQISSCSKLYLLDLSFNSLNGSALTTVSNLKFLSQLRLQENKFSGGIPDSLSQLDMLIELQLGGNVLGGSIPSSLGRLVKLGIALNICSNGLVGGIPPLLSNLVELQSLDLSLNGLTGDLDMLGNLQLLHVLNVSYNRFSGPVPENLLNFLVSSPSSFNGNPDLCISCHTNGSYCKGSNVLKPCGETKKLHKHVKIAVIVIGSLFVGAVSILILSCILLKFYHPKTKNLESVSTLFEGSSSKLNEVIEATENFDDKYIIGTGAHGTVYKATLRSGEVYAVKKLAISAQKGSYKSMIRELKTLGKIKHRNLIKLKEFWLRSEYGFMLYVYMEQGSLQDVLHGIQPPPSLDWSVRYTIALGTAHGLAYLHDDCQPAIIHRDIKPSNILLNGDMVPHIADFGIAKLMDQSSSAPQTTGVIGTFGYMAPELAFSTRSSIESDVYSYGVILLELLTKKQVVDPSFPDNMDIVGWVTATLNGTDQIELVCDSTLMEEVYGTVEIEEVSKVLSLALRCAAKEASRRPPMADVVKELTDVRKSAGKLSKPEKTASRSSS
OsPEPR2, sequence (as listed by the source): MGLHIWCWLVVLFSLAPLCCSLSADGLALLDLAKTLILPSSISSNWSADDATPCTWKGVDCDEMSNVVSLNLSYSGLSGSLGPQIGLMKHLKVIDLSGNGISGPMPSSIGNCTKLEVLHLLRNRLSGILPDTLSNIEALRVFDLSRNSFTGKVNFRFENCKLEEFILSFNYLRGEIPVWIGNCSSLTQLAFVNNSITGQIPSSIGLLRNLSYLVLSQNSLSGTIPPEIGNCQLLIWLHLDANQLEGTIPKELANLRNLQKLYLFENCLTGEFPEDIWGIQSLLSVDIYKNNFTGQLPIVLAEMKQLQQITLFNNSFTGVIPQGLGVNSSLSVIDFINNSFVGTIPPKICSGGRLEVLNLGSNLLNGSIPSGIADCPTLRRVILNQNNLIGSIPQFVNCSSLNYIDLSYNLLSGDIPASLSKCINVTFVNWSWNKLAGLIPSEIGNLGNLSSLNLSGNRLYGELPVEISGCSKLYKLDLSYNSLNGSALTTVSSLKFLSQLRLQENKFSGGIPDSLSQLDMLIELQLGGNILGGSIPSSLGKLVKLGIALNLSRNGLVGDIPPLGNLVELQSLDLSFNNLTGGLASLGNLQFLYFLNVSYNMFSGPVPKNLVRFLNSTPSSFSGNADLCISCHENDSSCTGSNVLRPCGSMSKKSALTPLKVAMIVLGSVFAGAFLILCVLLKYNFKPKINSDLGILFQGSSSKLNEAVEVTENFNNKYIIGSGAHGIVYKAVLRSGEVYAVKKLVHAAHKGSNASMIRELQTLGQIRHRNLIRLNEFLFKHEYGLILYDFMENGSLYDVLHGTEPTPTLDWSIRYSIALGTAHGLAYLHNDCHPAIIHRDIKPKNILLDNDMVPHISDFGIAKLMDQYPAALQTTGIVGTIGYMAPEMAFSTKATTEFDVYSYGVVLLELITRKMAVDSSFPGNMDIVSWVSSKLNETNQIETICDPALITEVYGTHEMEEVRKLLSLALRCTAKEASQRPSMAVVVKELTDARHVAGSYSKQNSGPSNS

`COC(=O)c1ccccc1O` [MeSA, methyl salicylate, reference compound]: the “expression of AtproPep1 paralogs after spraying” value in experiment [1] is given as “strongly induced only two of the genes”.
For the molecule “EIKARGKNKTKPTPSSGKGGKHN [AtPep3, DNKAKSKKRDKEKPSSGRPGQTN]”, on AtPEPR1 (AtPEPR1 expressing tobacco cells), the maximal change was 1.2 pH units. Besides, the “induction of AtPEPR1 and AtPEPR2 transcripts” value in experiment [2] is “strong inducer”.
For the molecule “SLAGANVLVRDAPPETGGGPHHN (SLAGANVLVRDAPPETGGGPHHN) [OsPep3c]”, the medium alkalinization activity result is reported as “did not show any activity” with OsPEPR1 and “weak activity” in the experiment with OsPEPR2. Besides, in the experiment with OsPEPR2 (peptide at 250 nM), the “medium pH increase” value came to 0.5 pH unit.
Consider “SLNVMRKGIRKQPVSSGKRGGVN [AtPep2, SLNVMRKGIRKQPVSSGKRGGVN]”, for which the EC50 on AtPEPR1 and on AtPEPR2 was roughly 0.25 nM each time.
Turning to `CC/C=C\CC1C(=O)CCC1CC(=O)OC` (stereo not shown) [MeJA, methyl jasmonate], in experiment [1], the “expression of AtproPep1 paralogs after spraying” value is “expressed relatively strongly” and the “expression of the AtproPep1 gene in intact plants” value is on record as “induced a strong expression”. Further, the “induction of AtPEPR1 and AtPEPR2 transcripts” value in experiment [2] was “induced”. In addition, in experiment [3] (1 hour after supplying), the “increase of GmPROPEP1 transcripts” value was 4 fold. Moreover, the “increase of GmPROPEP2 transcripts” value in experiment [3] (2 hours after supplying) was found to be 5 fold.
Regarding `O=P(O)(O)CCCl` [ethephon], the “expression of the AtproPep1 gene in intact plants” value in experiment [1] was “induced a strong expression”.
For the molecule “VRRRPTTPGRPREGSGGNGGNHH [ZmPep1, VRRRPTTPGRPREGSGGNGGNHH]”, the “medium pH increase” value with OsPEPR1 worked out at 1.2 pH unit. Also, in the experiment with OsPEPR1 (read-out: half-maximal activity), the EC50 was 0.25 nM.

(Values after patent US8686224B2, “Plant defense signal peptides” (priority 2005, dated 2014).)
